In patent US20090124622A1, “Medicament Containing a Thiazole Derivative as an Active Ingredient” (priority 2006, published 2009):

What was measured:
[1] = test system: guinea pig delayed asthma model; experiment: Guinea pig delayed asthma model; assay type: in vivo; conditions: Cavia porcellus, oral, 1 hour before OVA inhalation, read-out: ED50 (inhibition of delayed asthma reaction, AUC4-8hr of % sRaw/TV)
Protocol: Hartley male guinea pigs were purchased from SLC, and after quarantining them for 1 week, at the week when the qualantine was finished the first sensitization was carried out by antigen exposure. By using ultrasonic nebulizer (OMRON NE-U12, condition: Vapor amount: maximum, Air: small) 2% (w/v) ovalbumin (OVA, by Sigma-Aldrich) in saline solution was vaporized, and by disposing for 10 minutes, they were first sensitized. At sensitizing, the guinea pigs were fixed on a body holder cartridge for them (by M.I.P.S.), and they were set on disposal chamber holder for 8 guinea pigs (by M.I.P.S.). Additional sensitization was carried out 7 days after the first sensitization as well. […] Breath function was measured by a general breath function measurement system (by M.I.P.S.) using Double flow plestymograph method (Penny A. Hutson et al. Am Rev Respir Dis 1988 137, 548-557). The breath function was measured before reaction induction (pre-value), 5 minutes, 1, 2, 3, 4, 5, 6, 7, and 8 hours after completion of reaction induction. By using one of parameters, sRaw/TV (specific airway resistance/once breath) as an index of improvement of respiratory function, variation rate per individual of sRaw/TV (% sRaw/TV) against pre-value between each measured times was calculated. Plotting % sRaw/TV with time, Area Under the Curve (AUC4-8hr) from 4 hours to 8 hours after reaction induction was calculated. […]

[2] = test system: guinea pig rhinitis model; experiment: Inflammatory mediators (TNF, LTE4) in nasal cavity lavage fluid of guinea pig rhinitis model; assay type: in vivo; conditions: 8 hours after antigen nasal challenge
Protocol: Eight hours after antigen nasal challenge, by intraperitoneally administering pentobarbital sodium (Nembutal (reg. trade name), by Dainippon Sumitomo Pharma) 30 mg/body weight (kg) to anesthetize, the animal was fixed at the back. Opening bronchial, a cannula was inserted into a lung site to continue breath, and fixed by knotting. After stopping the channel of oral cavity and nasal cavity, from a part of opened bronchia to a side of nasal cavity a cannula was inserted, and knotted, and to the cannula was connected syringe pump. A saline solution was refluxed in the nasal cavity at flow speed (1 ml/minute) for 10 minutes, and the refluxed solution was recovered to get nasal cavity lavage fluid, NCLF). NCLF was centrifuged (1710.5×g (3000 rpm), 4° C., 10 minutes), and the supernatant was freezed at −80° C., and subjected to experiment of Example 5.
The supernatant of NCLF obtained in Example 4 was freezed at −80° C. and preserved. After thawing the sample, the concentration of LTE4 was measured by immuno assay kit (Leukotriene E4 EIA kit, by Cayman Chemical). The concentration of TNF was measured by bioassay method using L929 cells (from Dainippon Sumitomo Pharma) (David H., et al., J. Allergy Clin. Immunol. 89, 958-967 (1992)). Using recombinant human TNF-α (by PeproTech) as a standard, the result was shown by potency of human TNF-α cytotoxicity.

[3] = test system: mast cells derived from murine bone marrow; experiment: Cys-LT release from antigen-stimulated murine bone marrow-derived mast cells; assay type: cell-based, mouse; conditions: DNP-HSA 10 ng/ml; IgE-sensitized mast cells
Source text: (§1) According to almost the same method as the method by Razin et al. (J. Immunol. 132, 1479-1486 (1984)), murine bone marrow cells were differentiated into mast cells. Namely, bone marrow cells from femur of a female BALB/c mouse (purchased from Charles River Japan) were collected, and cultured in RPMI 1640 culture medium, containing 10% […] FBS prepared by Invitrogen, and 50% WEHI-3 cell culture supernatant. After culture for more than three weeks and confirming differentiation into mast cells under microscope, the cells were subjected to the following experiments.
(§2) Mast cells were suspended in the concentration of 2×10^6 cell/ml, and thereto was added 0.1 μg/ml anti-mouse DNP-Age antibody (SPE7, by Sigma-Aldrich). The cell suspension was incubated overnight in a CO2 incubator (5% CO2, 37° C.), and passively sensitized. […] After terminating the reaction by putting the plate on ice, histamine concentration of the supernatant was measured. […]
This experiment was conducted in the almost same method as the experiment of histamine release except that the final concentration of antigen (DNP-HSA) was 10 ng/ml. The concentration of […] in supernatant was measured by using Cysteinyl-Leukotriene EIA Kit (by Cayman Chemical).

guinea pig eosinophiles = experiment: Release of prostaglandin D2 and thromboxane B2 from PAF-induced guinea pig eosinophiles; assay type: cell-based; conditions: PAF C-16 10^-7M, 10 minutes
Protocol: In accordance with almost the same as the method of Sugasawa et al. (Agents and Actions 37, 233-237 (1992)), eosinophiles were separated and purified from abdominal of a male Hartley guinea pig (from SLC) and the cell concentration was adjusted to 1.25×10^7 cell/ml with modified hanks solution. The cell suspension (80 μl) were added to a 96-well culture plate (by Asahi-techno-glass Co. Ltd.), and then a test sample in DMSO solution or 2.5% DMSO solution only (10 μl) was added. After the plate was preincubated in a CO2 gas incubator for 10 minutes (5% CO2, at 37° C.), thereto was added Platelet Activating Factor (PAF C-16, by Cayman Chemical) 10 μl (final concentration of PAF C-16: 10−7M), and the mixture was further incubated in a CO2 gas incubator for 10 minutes. The concentrations of thromboxane B2 and prostaglandin in the supernatant were measured by using immunoassay kit (Thromboxane B2 EIA kit, Prostaglandin D2-MOX EIA kit, by Cayman Chemical).

[4] = test system: mast cells derived from murine bone marrow; experiment: Histamine release from antigen-stimulated murine bone marrow-derived mast cells; assay type: cell-based, mouse; conditions: DNP-HSA 100 ng/ml, 20 minutes; IgE-sensitized mast cells
Source text: as §1
Mast cells were suspended in the concentration of 2×10^6 cell/ml, and thereto was added 0.1 μg/ml anti-mouse DNP-Age antibody (SPE7, by Sigma-Aldrich). The cell suspension was incubated overnight in a CO2 incubator (5% CO2, 37° C.), and passively sensitized. […] The cell suspension (80 μl) were added to a 96-well culture plate (by Asahi-techno-glass Co. Ltd.), and then a test sample in DMSO solution or 2.5% DMSO solution only (10 μl) was added. After the plate was reinsulated in a CO2 incubator for 10 minutes, to stimulate, 10 μl of 1 μg/ml of antibody (DNP-HSA, by Sigma-Aldrich, final concentration of antigen 100 ng/ml) was added to each well. […] After terminating the reaction by putting the plate on ice, histamine concentration of the supernatant was measured. […]

[5] = test system: guinea pig rhinitis model; experiment: Nasal cavity resistance change (sRaw) in guinea pig rhinitis model; assay type: in vivo; conditions: oral
Protocol: Referring to the report (74th Japanese Pharmacological Society (2001), Abstract number P-258, Establishment delayed rhinitis model by a guinea pig and effect of polysulfonic acidified hyaluronic acid, Masaki Matsudo, Junichi Fuchigami et al.), the following evaluation was conducted.
A saline solution (1 ml) containing OVA (50 mg) and aluminum hydroxide gel (1 mg) (by PIERCE) was percuteneously administered to a male Hartley guinea pig (from Kyudo Co. Ltd.) on back collum to make active sensitization.
SMP-028 was orally administered for 15 days starting from sensitization once a day (5 ml/body weight (kg)). The drug was orally administered before 1 hour on the sensitized day or on the antibody-challenged day. To saline solution challenged group (saline group) and control group was orally administered 0.5% MC as well. To dexamethasone group (dex. group) was orally administered the drug before 16 hours and 2 hours of antibody challenge. […]
By using a general respiratory function analysis system (PULMOS-I, by M.I.P.S), nasal cavity resistance of guinea big under palinesthesia was measured in accordance with the method of Double flow plestymograph. Because antibody challenge region was restricted to nose part, sRaw which was analyzed by computer and outputted (specific airway resistance) was served as an index of nasal cavity resistance. Before antibody nasal challenge, 10 minutes, 2, 3, 4, 5, 6 and 7 hours after the challenge, each sRaw per animal was once measured, and average of 100 breathes was made sRaw at each measured time. From the sRaw value by using analysis soft on a general respiratory function analysis system (WinPUL13 ver. 1.21) and using the calculation formula (sRaw increased rate (%) during each measuring times=100×(sRaw−sRaw before challenge during each measuring times)/sRaw before challenge), sRaw change rate was calculated. […] AUC3-7hr was calculated by trapezoid (echelon) method. Furthermore, from IAR and LAR in medium control group and each test group, inhibiting rate (%) on each test group against medium control group was calculated.

[6] = test system: mast cells derived from murine bone marrow; experiment: Cytokine (TNF-α, IL-13) release from antigen-stimulated murine bone marrow-derived mast cells; assay type: cell-based, mouse; conditions: DNP-HSA 3 ng/ml, 4 hours
Source text: as §1, §2
This experiment was conducted in almost the same method as the experiment on histamine release except that the final concentration of antigen (DNP-HSA) was 3 ng/ml, and reaction hours after addition of the antigen were 4 hours. The concentrations of TNF-α, and IL-13 in the supernatant were measured by using Enzyme-linked immunoassay kit (Quantikine (reg. trademark) Mouse TNF-α/TNFSF1A and IL-13 Immunoassay, by R&D systems).

[7] = once a day for 15 days, OVA nasal challenge

SMILES	ED50 [1]	production of LTE4 in nasal cavity (NCLF) ([2]; EIA)	production of TNF in nasal cavity (NCLF) ([2]; L929 bioassay)	release of Cys-LT from mast cells [3]	release of prostaglandin D2 from eosinophiles (guinea pig eosinophiles)	release of thromboxane B2 from eosinophiles (guinea pig eosinophiles)	release of histamine from mast cells [4]	efficacy on immediate and delayed nasal congestion reaction compared with dexamethasone ([5]; 30 mg/kg)	delayed nasal congestion reaction (LAR, AUC3-7hr of sRaw increased rate) [5, 7]	immediate nasal congestion reaction (IAR, sRaw increased rate 10 minutes after challenge) [5, 7]	release of IL-13 from mast cells [6]	release of TNF-α from mast cells [6]
CNC(=O)NCCn1c(-c2ccc(N3CCOCC3)cc2)csc1=Nc1ccc(F)cc1 [Compound 2, reference compound]	0.69 mg/kg	–	–	–	–	–	–	–	–	–	–	–
CNC(=O)NCCn1c(-c2ccc(N3CCOCC3)cc2)csc1=Nc1cccc(F)c1 [SMP-028, N-{2-[2-[(3-Fluorophenyl)imino]-4-(4-morpholin-4-ylphenyl)-1,3-thiazol-3(2H)-yl]ethyl}-N′-methylurea]	0.44 mg/kg	showed a tendency and activity of inhibition	showed a tendency and activity of inhibition	inhibited	concentration-dependently inhibited	concentration-dependently inhibited	inhibited	efficacy comparative to dexamethasone	dose-dependently inhibited	dose-dependently inhibited	inhibited	inhibited
